The values below come from paper PMC3855667 (Biochemistry, 2013).

The test has as its target EmrD (Escherichia coli, UniProt P31442). Description: fluorescence anisotropy titration with EmrD. The class given is binding. (Fluorescence polarisation rises when a labelled molecule tumbles more slowly, as on binding a larger partner.)

Sequence of EmrD (P31442 whole entry): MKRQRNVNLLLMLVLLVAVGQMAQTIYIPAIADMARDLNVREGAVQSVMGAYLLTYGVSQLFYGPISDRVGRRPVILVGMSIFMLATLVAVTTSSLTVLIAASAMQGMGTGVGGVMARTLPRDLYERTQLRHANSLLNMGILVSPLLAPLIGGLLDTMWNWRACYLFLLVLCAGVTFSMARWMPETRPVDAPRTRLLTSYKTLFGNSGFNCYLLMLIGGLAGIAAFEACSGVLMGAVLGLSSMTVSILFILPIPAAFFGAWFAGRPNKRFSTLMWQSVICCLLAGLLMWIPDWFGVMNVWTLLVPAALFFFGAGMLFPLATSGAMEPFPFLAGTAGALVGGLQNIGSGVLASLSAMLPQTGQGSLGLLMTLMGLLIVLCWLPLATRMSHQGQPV

Turning to `COc1cccc2c1C(=O)c1c(O)c3c(c(O)c1C2=O)C[C@@](O)(C(=O)CO)C[C@@H]3O[C@H]1C[C@H](N)[C@H](O)[C@H](C)O1` [doxorubicin], the Kd (commonly the concentration at which binding is half-saturated) is approximately 7 µM.
